In patent US20230167118A1, “DEGRADATION OF BRUTON'S TYROSINE KINASE (BTK) BY CONJUGATION OF BTK INIDBITORS WITH E3 LIGASE LIGAND AND METHODS OF USE” (BEIGENE, LTD., priority 2020, published 2023):

How the values were obtained:
BTK = molecular target: T1, BTK (Homo sapiens, UniProt Q06187); test: Cell Degradation: BTK degradation in TMD-8 cells, HTRF assay; format: cell-based; settings: 6 h treatment, IC50 (DC50) of BTK degradation
T1 construct: High control=Cell group with added DMSO and without compound, indicating microplate readings without BTK degradation; endogenous in cells; host or cells: TMD-8 cells
T1 sequence (Q06187 whole entry): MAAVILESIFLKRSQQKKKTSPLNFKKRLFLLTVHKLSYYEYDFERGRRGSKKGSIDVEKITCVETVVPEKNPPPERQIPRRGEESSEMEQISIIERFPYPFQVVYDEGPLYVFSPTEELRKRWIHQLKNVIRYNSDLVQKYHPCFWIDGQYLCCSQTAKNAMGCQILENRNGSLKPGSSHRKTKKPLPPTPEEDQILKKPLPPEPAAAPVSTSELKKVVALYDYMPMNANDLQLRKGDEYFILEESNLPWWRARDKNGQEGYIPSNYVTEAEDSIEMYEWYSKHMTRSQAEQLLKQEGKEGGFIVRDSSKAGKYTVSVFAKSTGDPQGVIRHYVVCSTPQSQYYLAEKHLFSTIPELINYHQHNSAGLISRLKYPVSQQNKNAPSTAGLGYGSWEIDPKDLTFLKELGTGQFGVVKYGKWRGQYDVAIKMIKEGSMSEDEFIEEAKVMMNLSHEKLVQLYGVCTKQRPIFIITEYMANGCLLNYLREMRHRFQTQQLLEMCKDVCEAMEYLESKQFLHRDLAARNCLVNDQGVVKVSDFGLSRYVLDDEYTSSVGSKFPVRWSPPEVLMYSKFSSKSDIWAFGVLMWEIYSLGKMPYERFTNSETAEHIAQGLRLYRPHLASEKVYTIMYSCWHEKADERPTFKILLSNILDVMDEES
Method in brief: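 TMD-8 cells treated 6 h with 8-dose 6-fold dilutions in 0.2% DMSO, then lysed and BTK quantified by HTRF (665/620 nm). Degradation % normalised to high/low controls; DC50 from four-parameter fit, Dmax as maximal degradation.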

HEK-293 cells = test: HEK-293 Cytotoxicity Assay (CellTiter-Glo); format: cell-based; settings: Homo sapiens, HEK293, 72 h incubation, CellTiter-Glo luminescence
Method in brief: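 HEK-293 cells treated 72 h with 8 concentrations (4-fold dilutions, 0.2% DMSO final). Viability read by CellTiter-Glo luminescence; IC50 from four-parameter logistic fit of % inhibition.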

SMILES | DC50 (BTK) [nM] | IC50 (HEK-293 cells) [nM]
Cc1cc(-c2ncnc3[nH]c(-c4ccc(C5CCN(CCCC6CN(c7ccc8c(c7)C(=O)N(C7CCC(=O)NC7=O)C8=O)C6)CC5)cc4)cc23)ccc1CNC(=O)c1nc(C(C)(C)C)no1 (centres unmarked) [Example 6, 3-(tert-butyl)-N-(4-(6-(4-(1-(3-(1-(2-(2,6-dioxopiperidin-3-yl)-1,3-dioxoisoindolin-5-yl)azetidin-3-yl)propyl)piperidin-4-yl)phenyl)-7H-pyrrolo[2,3-d]pyrimidin-4-yl)-2-methylbenzyl)-1,2,4-oxadiazole-5-carboxamide] | 1.7 | > 10000
Cc1cc(-c2ncnc3[nH]c(-c4ccc(N5CCN(CC6CCN(c7ccc(N8CCC(=O)NC8=O)cc7)CC6)C[C@@H]5C)nc4)cc23)ccc1[C@@H](C)NC(=O)c1nc(C(C)(C)C)no1 [Example 106, 3-(tert-butyl)-N-((R)-1-(4-(6-(6-((S)-4-((1-(4-(2,4-dioxotetrahydropyrimidin-1(2H)-yl)phenyl)piperidin-4-yl)methyl)-2-methylpiperazin-1-yl)pyridin-3-yl)-7H-pyrrolo[2,3-d]pyrimidin-4-yl)-2-methylphenyl)ethyl)-1,2,4-oxadiazole-5-carboxamide] | 4.6 | > 10000
Cc1cc(-c2ncnc3[nH]c(-c4ncc(N5CCN(CC6CCN(c7ccc(N8CCC(=O)NC8=O)cc7)CC6)CC5)s4)cc23)ccc1[C@@H](C)NC(=O)c1nc(C(C)(C)C)no1 [Example 186, (R)-3-(tert-butyl)-N-(1-(4-(6-(5-(4-((1-(4-(2,4-dioxotetrahydropyrimidin-1(2H)-yl)phenyl)piperidin-4-yl)methyl)piperazin-1-yl)thiazol-2-yl)-7H-pyrrolo[2,3-d]pyrimidin-4-yl)-2-methylphenyl)ethyl)-1,2,4-oxadiazole-5-carboxamide] | 1.04 | > 10000
Cc1cc(-c2ncnc3[nH]c(-c4ccc(N5CCN(CC6CCN(c7ccc(N8CCC(=O)NC8=O)cc7)CC6)CC5)cn4)cc23)ccc1[C@@H](C)NC(=O)c1nc(C2(C)CC2)no1 [Example 165, (R)-N-(1-(4-(6-(5-(4-((1-(4-(2,4-dioxotetrahydropyrimidin-1(2H)-yl)phenyl)piperidin-4-yl)methyl)piperazin-1-yl)pyridin-2-yl)-7H-pyrrolo[2,3-d]pyrimidin-4-yl)-2-methylphenyl)ethyl)-3-(1-methylcyclopropyl)-1,2,4-oxadiazole-5-carboxamide] | 0.69 | > 10000
Cc1cc(-c2ncnc3[nH]c(-c4ccc(N5CCN(CCC6CCN(c7ccc(N8CCC(=O)NC8=O)c(Cl)c7)CC6)CC5)nc4)cc23)ccc1[C@@H](C)NC(=O)c1nc(C(C)(C)C)no1 [Example 26, (R)-3-(tert-butyl)-N-(1-(4-(6-(6-(4-(2-(1-(3-chloro-4-(2,4-dioxotetrahydropyrimidin-1(2H)-yl)phenyl)piperidin-4-yl)ethyl)piperazin-1-yl)pyridin-3-yl)-7H-pyrrolo[2,3-d]pyrimidin-4-yl)-2-methylphenyl)ethyl)-1,2,4-oxadiazole-5-carboxamide] | 4.7 | > 10000
Cc1cc(-c2ncnc3[nH]c(-c4ccc(N5CCN(CC6CCN(c7ccc(N8CCC(=O)NC8=O)cc7)CC6)CC5)cn4)cc23)ccc1[C@@H](C)NC(=O)c1noc(C2(C)CC2)n1 [Example 124, (R)-N-(1-(4-(6-(5-(4-((1-(4-(2,4-dioxotetrahydropyrimidin-1(2H)-yl)phenyl)piperidin-4-yl)methyl)piperazin-1-yl)pyridin-2-yl)-7H-pyrrolo[2,3-d]pyrimidin-4-yl)-2-methylphenyl)ethyl)-5-(1-methylcyclopropyl)-1,2,4-oxadiazole-3-carboxamide] | 1.01 | > 10000
Cc1cc(-c2ncnc3[nH]c(-c4ccc(N5CCN(CC6CCN(c7ccc(N8CCC(=O)NC8=O)c(C)c7)CC6)CC5)cc4)nc23)ccc1[C@@H](C)NC(=O)c1noc(C(C)(C)C)n1 [Example 73, (R)-5-(tert-butyl)-N-(1-(4-(8-(4-(4-((1-(4-(2,4-dioxotetrahydropyrimidin-1(2H)-yl)-3-methylphenyl)piperidin-4-yl)methyl)piperazin-1-yl)phenyl)-9H-purin-6-yl)-2-methylphenyl)ethyl)-1,2,4-oxadiazole-3-carboxamide] | 1.1 | > 10000
Cc1cc(-c2ncnc3[nH]c(-c4ccc(C5CCN(CC6CCN(c7ccc(N8CCC(=O)NC8=O)cc7)CC6)CC5)cc4)cc23)ccc1CNC(=O)c1cn(C(C)(C)C)nn1 [Example 40, 1-(tert-butyl)-N-(4-(6-(4-(1-((1-(4-(2,4-dioxotetrahydropyrimidin-1(2H)-yl)phenyl)piperidin-4-yl)methyl)piperidin-4-yl)phenyl)-7H-pyrrolo[2,3-d]pyrimidin-4-yl)-2-methylbenzyl)-1H-1,2,3-triazole-4-carboxamide] | 0.63 | > 10000
CC(C)(C)c1noc(C(=O)N[C@@H]2CCc3cc(-c4ncnc5[nH]c(-c6ccc(N7CCN(CC8CCN(c9ccc(N%10CCC(=O)NC%10=O)cc9)CC8)CC7)cn6)cc45)ccc32)n1 [Example 150, (R)-3-(tert-butyl)-N-(5-(6-(5-(4-((1-(4-(2,4-dioxotetrahydropyrimidin-1(2H)-yl)phenyl)piperidin-4-yl)methyl)piperazin-1-yl)pyridin-2-yl)-7H-pyrrolo[2,3-d]pyrimidin-4-yl)-2,3-dihydro-1H-inden-1-yl)-1,2,4-oxadiazole-5-carboxamide] | 1.64 | > 10000
Cc1cc(-c2ncnc3[nH]c(-c4cnc(N5CCN(CC6CCN(c7ccc(N8CCC(=O)NC8=O)cc7)CC6)CC5)s4)cc23)ccc1[C@@H](C)NC(=O)c1nc(C(C)(C)C)no1 [Example 168, (R)-3-(tert-butyl)-N-(1-(4-(6-(2-(4-((1-(4-(2,4-dioxotetrahydropyrimidin-1(2H)-yl)phenyl)piperidin-4-yl)methyl)piperazin-1-yl)thiazol-5-yl)-7H-pyrrolo[2,3-d]pyrimidin-4-yl)-2-methylphenyl)ethyl)-1,2,4-oxadiazole-5-carboxamide] | 0.75 | > 10000
Cc1cc(-c2ncnc3[nH]c(-c4ccc(N5CCN(CC6CCN(c7ccc(N8CCC(=O)NC8=O)c(C)c7)CC6)CC5)cc4)nc23)ccc1[C@@H](C)NC(=O)c1nc(C(C)(C)C)no1 [Example 67, (R)-3-(tert-butyl)-N-(1-(4-(8-(4-(4-((1-(4-(2,4-dioxotetrahydropyrimidin-1(2H)-yl)-3-methylphenyl)piperidin-4-yl)methyl)piperazin-1-yl)phenyl)-9H-purin-6-yl)-2-methylphenyl)ethyl)-1,2,4-oxadiazole-5-carboxamide] | 0.69 | > 10000
Cc1cc(-c2ncnc3[nH]c(-c4ccc(N5CCN(CC6CCN(c7ccc(N8CCC(=O)NC8=O)cc7)CC6)CC5)cc4)cc23)ccc1CNC(=O)c1nc(C(C)(C)C)no1 [Example 18, 3-(tert-butyl)-N-(4-(6-(4-(4-((1-(4-(2,4-dioxotetrahydropyrimidin-1(2H)-yl)phenyl)piperidin-4-yl)methyl)piperazin-1-yl)phenyl)-7H-pyrrolo[2,3-d]pyrimidin-4-yl)-2-methylbenzyl)-1,2,4-oxadiazole-5-carboxamide] | 1.7 | > 10000
Cc1cc(-c2ncnc3[nH]c(-c4ccc(N5CCN(Cc6ccc(C7CCC(=O)NC7=O)c(F)c6)CC5)cn4)cc23)ccc1[C@@H](C)NC(=O)c1nc(C(C)(C)C)no1 (stereo partly drawn) [Example 181, 3-(tert-butyl)-N-((1R)-1-(4-(6-(5-(4-(4-(2,6-dioxopiperidin-3-yl)-3-fluorobenzyl)piperazin-1-yl)pyridin-2-yl)-7H-pyrrolo[2,3-d]pyrimidin-4-yl)-2-methylphenyl)ethyl)-1,2,4-oxadiazole-5-carboxamide] | 1.58 | > 10000
Cc1cc(-c2ncnc3[nH]c(-c4ccc(N5CCN(C6CC(c7ccc(C8CCC(=O)NC8=O)cc7)C6)CC5)cc4)cc23)ccc1[C@@H](C)NC(=O)c1nc(C(C)(C)C)no1 (stereo partly drawn) [Example 153, 3-(tert-butyl)-N-((1R)-1-(4-(6-(4-(4-(3-(4-(2,6-dioxopiperidin-3-yl)phenyl)cyclobutyl)piperazin-1-yl)phenyl)-7H-pyrrolo[2,3-d]pyrimidin-4-yl)-2-methylphenyl)ethyl)-1,2,4-oxadiazole-5-carboxamide] | 2.02 | 9580
Cc1cc(-c2ncnc3[nH]c(-n4nc(C)c(C5CCN(CC6CCN(c7ccc(N8CCC(=O)NC8=O)cc7)CC6)CC5)c4C)cc23)ccc1[C@@H](C)NC(=O)c1nc(C(C)(C)C)no1 [Example 152, (R)-3-(tert-butyl)-N-(1-(4-(6-(4-(1-((1-(4-(2,4-dioxotetrahydropyrimidin-1(2H)-yl)phenyl)piperidin-4-yl)methyl)piperidin-4-yl)-3,5-dimethyl-1H-pyrazol-1-yl)-7H-pyrrolo[2,3-d]pyrimidin-4-yl)-2-methylphenyl)ethyl)-1,2,4-oxadiazole-5-carboxamide] | > 2000 | 2460
Cc1cc(-c2ncnc3[nH]c(-c4ccc(N5CCN([C@H]6C[C@@H](c7ccc(O[C@@H]8CCC(=O)NC8=O)cc7)C6)CC5)nc4)cc23)ccc1[C@@H](C)NC(=O)c1nc(C(C)(C)C)no1 [Example 192, 3-(tert-butyl)-N-((R)-1-(4-(6-(6-(4-((1S,3s)-3-(4-(((R)-2,6-dioxopiperidin-3-yl)oxy)phenyl)cyclobutyl)piperazin-1-yl)pyridin-3-yl)-7H-pyrrolo[2,3-d]pyrimidin-4-yl)-2-methylphenyl)ethyl)-1,2,4-oxadiazole-5-carboxamide] | > 2000 | > 10000
